System: Acyl-CoA synthetase activity in rat liver microsomes
Test: Synthesis of CoA derivatives in rat liver microsomes (LCMS)
Settings: 1 mM substrate, 30 min sample vs 0 min
Procedure: Prior to the experiment a 1 mM working stock was created in primary hepatocyte media which was used to create the final dilution series of 0 (vehicle), 0.3, 1, 3, 10, and 30 μM. The final concentration of DMSO in all samples was <1%.
For initial validation of ACS activity using palmitate, 14C-palmitate was added (0.5 μCi/ml). Each sample was equilibrated at 37° C. while shaking for 10 min before the reaction was initiated by the addition of 0.04 mg of rat microsomal preparation (ThermoFisher Scientific. Cat #RTM-CPL, Lot #RT060-A) followed by incubation for 1, 3, 10, or 30 mins. Time 0 sample with no added microsomes was used as a control. The reaction was stopped by immediately placing the reaction tube on ice followed by the rapid addition of the reaction mixture to 2.25 ml ice-cold isopropanol/heptane/2M-sulfuric acid (40:10:1, vol/vol) in a 5 ml glass vial. […] For studies that involved measurement of 14C Palmitoyl-CoA formation, 200 μl of the lower aqueous phase was added to the 5 ml of scintillation fluid and the number of DPMs were determined by liquid scintillation counting for 5 minutes using a LS6500 Liquid Scintillation Counter (Beckman Coulter). […]
The reaction products were ionized by electrospray ion source (ESI) in positive mode. […] The resulting mass spectra were analyzed using the Xcalibur 2.1 Qualitative software package. […]

Structure (SMILES): CC(C)(CCCc1ccc(CCCC(C)(C)C(=O)SCCNC(=O)CCNC(=O)[C@H](O)C(C)(C)COP(=O)(O)OP(=O)(O)OC[C@H]2O[C@@H](n3cnc4c(N)ncnc43)[C@H](O)[C@@H]2OP(=O)(O)O)cc1)C(=O)O [III-1-CoA, 5-[4-(4-Carboxy-4-methylpentyl)-phenyl]-2,2-dimethylpentanoic acid Coenzyme A ester]
- formation of the CoA derivative, detection by LCMS: could not be confirmed using fragmentation analysis

Reference: patent US11730712B2, “Functionalized long-chain hydrocarbon mono- and di-carboxylic acids and derivatives thereof, and their use for the prevention or treatment of disease” (ESPERVITA THERAPEUTICS, INC., priority 2021, dated 2023)
